According to patent US9700043B2, “Corrosive ingredient(s)-containing compositions having reduced toxicity and method of obtaining” (S. C. Johnson & Son, Inc., priority 2014, dated 2017):

Test system: bovine cornea
Assay: Bovine cornea opacity and permeability (BCOP) ocular irritation assay
Settings: mean data, Conc. neat, exposure time 10 minutes
Procedure: Products including one or more ingredients which are corrosive in nature and present in a product at a level which normally cause ocular irritation are modified to have reduced ocular irritation without replacing the corrosive ingredient(s) and without reducing the amount of the corrosive ingredient(s) used in a product. The level of corrosiveness or the hazards of a product is determined under EPA regulations. EPA toxicity testing is based on determining the level of ocular irritation caused by a product. This EPA standard is used herein to evidence the reduced corrosive nature of products of the invention. The test used is the bovine cornea opacity and permeability (BCOP) method which is an Organization for Economic Co-operation and Development (OECD) validated method for assessing ocular irritation and has recently been accepted by the EPA as an alternative to the traditional Draize animal test. The BCOP test method is described in the “OECD Guidelines For The Testing Of Chemicals”, No. 437, adopted Jul. 26, 2013 and entitled “Bovine Corneal Opacity and Permeability Test Method for Identifying i) Chemicals Inducing Serious Eye Damage and ii) Chemicals Not Requiring Classification for Eye Irritation or Serious Eye Damage”. […]
Step 3—Initial Opacity. The cMEM is removed and refilled and the initial opacity is read on an opacitometer. […]
Step 5—Rinsing. Corneas are rinsed thoroughly to remove the test substance and incubated for two (2) hours before a final opacity reading. […]
Formulas of the same ingredients as in Example 4 were also tested with lower or higher amounts of CARBOPOL® EZ-2 with respective adjustments in the water concentration. […] The viscosities of the 0.25% solution was ˜4 cps, of the 0.55% solution ˜10 cps, of the 0.75% solution ˜200 cps, of the 1.0% solution (shown above) ˜8,000 cps, (each of the former being measured by Brookfield LVT, spindle 1, speed 30 rpm) and of the 1.25% solution ˜18,700 cps (being measured by Brookfield LVT, spindle 4, speed 30 rpm). […]

CCO [Ethanol (Control), Ethanol]
OD490 Value (fluorescein permeability): 0.899
Opacity Value (n=3 corneas per sample): 28.7
In Vitro Score (EPA: score ≧75 = Category I): 42.2
